Results from ChEMBL document CHEMBL1133919, “Identification of selective inhibitors of cyclin dependent kinase 4” (Bioorg Med Chem Lett, 2001).

Key:
[1] = biological target: T1, Cyclin-dependent kinase 4/cyclin D1 (Homo sapiens, UniProt P11802); assay: Inhibitory activity against Cyclin dependent kinase CDK4/D1; format: protein-complex assay
SKUT-1A = assay: Inhibition of Rb negative Skut 1A cell proliferation; format: functional, cell-based; conditions: Homo sapiens
Skut1B = assay: Inhibition of Rb positive Skut 1B cell proliferation; format: functional, cell-based; conditions: Homo sapiens
[2] = biological target: Cyclin-dependent kinase 1 (Homo sapiens) (UniProt P06493); assay: Inhibition of Cyclin dependent kinase CDK1/B
HCT-116 = assay: Inhibition of colon carcinoma cell line HCT116 proliferation; format: functional, cell-based; conditions: Homo sapiens
[3] = biological target: Cyclin-dependent kinase 2/cyclin E (Homo sapiens, UniProt P24941); assay: Inhibition of CDK2/cyclin E; format: protein-complex assay
[4] = biological target: Cyclin-dependent kinase 1/cyclin B (Homo sapiens, UniProt P06493); assay: Inhibition of CDK1/cyclin B; format: protein-complex assay
[5] = biological target: T1, Cyclin-dependent kinase 4/cyclin D1; assay: Inhibition of Cyclin dependent kinase CDK4/cyclin D1; format: protein-complex assay

T1 sequence (P11802 whole entry): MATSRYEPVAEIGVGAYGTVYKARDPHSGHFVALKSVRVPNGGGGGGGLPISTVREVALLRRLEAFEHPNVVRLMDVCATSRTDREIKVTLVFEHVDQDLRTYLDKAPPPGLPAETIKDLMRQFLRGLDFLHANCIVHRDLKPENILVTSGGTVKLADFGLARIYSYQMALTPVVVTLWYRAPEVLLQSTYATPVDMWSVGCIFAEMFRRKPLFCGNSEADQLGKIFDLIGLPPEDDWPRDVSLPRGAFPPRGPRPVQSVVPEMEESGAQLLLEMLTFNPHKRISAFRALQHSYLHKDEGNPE
T1 sequence (P24385 whole entry, further chain): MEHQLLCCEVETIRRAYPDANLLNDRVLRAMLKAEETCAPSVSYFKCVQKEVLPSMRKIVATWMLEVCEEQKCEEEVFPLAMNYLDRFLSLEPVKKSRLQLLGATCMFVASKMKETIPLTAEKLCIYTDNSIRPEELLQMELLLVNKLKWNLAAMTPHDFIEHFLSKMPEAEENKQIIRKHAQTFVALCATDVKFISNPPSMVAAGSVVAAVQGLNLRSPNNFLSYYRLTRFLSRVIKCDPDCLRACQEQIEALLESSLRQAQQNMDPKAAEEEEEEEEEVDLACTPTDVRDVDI
Sequence of Cyclin-dependent kinase 1 (Homo sapiens) (P06493 whole entry, looked up): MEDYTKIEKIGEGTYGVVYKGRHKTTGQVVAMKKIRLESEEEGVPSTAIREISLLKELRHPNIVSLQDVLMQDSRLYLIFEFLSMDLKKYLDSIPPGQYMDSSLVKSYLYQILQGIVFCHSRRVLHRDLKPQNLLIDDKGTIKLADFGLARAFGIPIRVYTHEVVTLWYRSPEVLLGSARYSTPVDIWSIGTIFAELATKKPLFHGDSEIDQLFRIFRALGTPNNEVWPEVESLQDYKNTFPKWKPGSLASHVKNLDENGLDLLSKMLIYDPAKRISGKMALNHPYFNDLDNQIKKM

SMILES: Oc1ccc2c(ccc3[nH]c4c(-c5ccccc5)cccc4c32)c1
- IC50 [1]: 29 µM

SMILES: c1ccc2c(c1)[nH]c1ccc3cnccc3c12
- IC50 [1]: 30 µM

SMILES: c1ccc(-c2cccc3c2[nH]c2ccc4ccccc4c23)cc1
- IC50 [1]: > 341 µM

SMILES: COc1ccc2ccc3[nH]c4c(-c5ccccc5)cccc4c3c2c1
- IC50 [1]: > 309 µM

SMILES: Oc1ccc2ccc3[nH]c4ccc(-c5ccccc5)cc4c3c2c1
- IC50 [1]: 37.5 µM

SMILES: Oc1ccc2ccc3[nH]c4cccc(-c5ccccc5)c4c3c2c1
- IC50 [1]: 83 µM

SMILES: Nc1cccc(-c2cccc3c2[nH]c2ccc4ccc(O)cc4c23)c1
- IC50 (SKUT-1A): 11.6 µM
- IC50 (Skut1B): 4.1 µM
- IC50 [2]: 74.5 µM
- IC50 (HCT-116): 9.6 µM
- IC50 [1]: 2.3 µM

SMILES: c1ccc2c(c1)[nH]c1ccc3ncccc3c12
- IC50 [1]: 197 µM

SMILES: Oc1cccc2c1ccc1[nH]c3c(-c4ccccc4)cccc3c12
- IC50 [1]: 5.8 µM

SMILES: Oc1cccc2ccc3[nH]c4c(-c5ccccc5)cccc4c3c12
- IC50 [1]: 19.5 µM

SMILES: Oc1ccc(-c2cccc3c2[nH]c2ccc4ccc(O)cc4c23)cc1
- IC50 (SKUT-1A): 5.6 µM
- IC50 (Skut1B): 2.3 µM
- IC50 (HCT-116): 2.2 µM
- IC50 [1]: 1.9 µM

SMILES: Oc1ccc2ccc3[nH]c4cc(-c5ccccc5)ccc4c3c2c1
- IC50 [1]: 22 µM

SMILES: Nc1ccc2ccc3[nH]c4c(-c5ccccc5)cccc4c3c2c1
- IC50 [1]: 27.3 µM

SMILES: c1cnc2c(c1)ccc1[nH]c3ccccc3c12
- IC50 [1]: 442 µM

SMILES: Oc1ccc2ccc3[nH]c4c(-c5ccc(Cl)cc5)cccc4c3c2c1
- IC50 (SKUT-1A): 36 µM
- IC50 (Skut1B): 10.2 µM
- IC50 (HCT-116): 51 µM
- IC50 [1]: 9.9 µM

SMILES: Oc1ccc2ccc3[nH]c4c(-c5ccccc5)cccc4c3c2c1
- IC50 (SKUT-1A): 10.7 µM
- IC50 (Skut1B): 2.8 µM
- IC50 (HCT-116): 10.2 µM
- IC50 [3]: 97 µM
- IC50 [4]: 95 µM
- IC50 [5]: 3.6 µM

SMILES: Oc1ccc2ccc3[nH]c4ccccc4c3c2c1
- IC50 [1]: 17.4 µM

SMILES: c1ccc2c(c1)[nH]c1ccc3ccncc3c12
- IC50 [1]: 159 µM

SMILES: [O-][n+]1ccc2ccc3[nH]c4ccccc4c3c2c1
- IC50 [1]: 605 µM

SMILES: [O-][n+]1ccc2c(ccc3[nH]c4ccccc4c32)c1
- IC50 [1]: 59 µM
